Reference: patent US7803801B2, “Aminopyridine compounds having Syk inhibitory activity” (Japan Tobacco, Inc., priority 2005, dated 2010)
Read-outs that look alike come from different tables or passages of the source.

What was measured:
[1] = target: GST-Syk Full Protein (human) (Homo sapiens, UniProt P43405); assay: Syk kinase inhibition test (HTRF method); assay type: biochemical
Procedure, shortened: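 Human GST-Syk full-length (6.4 nM) phosphorylated biotin-EDPDYEWPSA-NH2 (250 nM) with 100 μM ATP in HEPES pH 7.0/MgCl2 buffer, 2% DMSO, 30 min at room temperature. EDTA stop, then HTRF detection (streptavidin-XL665, Eu anti-phosphotyrosine) after 1 h; 665/620 ratio read.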

[2] = system: cultured human mast cells; assay: Degranulation inhibition test using cultured human mast cells (IgE cross-linking, β-Hexosaminidase release); assay type: cell-based; conditions: Mast cell, cultured human mast cells, read-out: human degranulation ave. IC50
Procedure, shortened: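 CD34+ cord-blood cells cultured ≥8 weeks with SCF/IL-6/IL-3; FcεRI primed 5 days with rhIL-4 (1 ng/mL) and hIgE (0.5 μg/mL). Compound (0.1% DMSO) preincubated 10 min at 37 °C, then anti-IgE (final 10 μg/mL) 30 min; released β-hexosaminidase read at 405 nm versus total lysate, IC50 (M).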

[3] = HTRF, 100 μM ATP, 30 min room temperature, average, read-out: sykHTRF ave IC50
[4] = anti-hIgE stimulation, β-Hexosaminidase index, average
[5] = Tables 1-x, compounds A, read-out: sykHTRF ave IC50

SMILES | IC50 [1, 3] | IC50 [2, 4] | further results
CC1(c2ccnc(Nc3cccc(-c4cnc(N5CCC[C@@H](C(N)=O)C5)s4)n3)c2)OCCO1 [Compound A-565, (R)-1-(5-{6-[4-(2-methyl-[1,3]dioxolan-2-yl)pyridin-2-ylamino]pyridin-2-yl}thiazol-2-yl)piperidine-3-carboxamide] | – | – | IC50 [1, 5]: < 100 nM; IC50 ([2]; Tables 1-x, compounds A): 100 to 1000 nM
COCCN(C)c1ncc(-c2cccc(Nc3cc(C)ccn3)n2)s1 [Compound A-520, N-(2-methoxyethyl)-N-methyl-N-{5-[6-(4-methylpyridin-2-ylamino)pyridin-2-yl]thiazol-2-yl}amine] | – | – | IC50 [1, 5]: < 100 nM; IC50 ([2]; Tables 1-x, compounds A): 100 to 1000 nM
Cc1ccnc(Nc2cccc(-c3sc(N4CCN(C=O)CC4)nc3C)n2)c1 [Compound A-437, 4-{4-methyl-5-[6-(4-methylpyridin-2-ylamino)pyridin-2-yl]thiazol-2-yl}piperazine-1-carbaldehyde] | – | – | IC50 [1, 5]: < 100 nM; IC50 ([2]; Tables 1-x, compounds A): 100 to 1000 nM
CC(=O)c1ccc(-c2cccc(Nc3cc(CCO)ccn3)n2)s1 [Compound B-56] | – | – | IC50 ([1]; Tables 2-x, thiophene compounds B, read-out: sykHTRK ave IC50): 100 to 1000 nM; IC50 ([2]; Tables 2-x, thiophene compounds B): 100 to 1000 nM
CCOC(=O)CC(C)(C)c1ncc(-c2cccc(Nc3cc(C)ccn3)n2)s1 [Compound A-144] | > 1000 nM | > 1000 nM | –
Cc1ccnc(Nc2cccc(-c3sc([C@H](C)N)nc3C)n2)c1 [Compound A-104] | 100 to 1000 nM | > 1000 nM | –
CCN(c1ncc(-c2cccc(Nc3cc(C)ccn3)n2)s1)C1CCN(C(C)=O)CC1 [Compound A-534, 1-[4-(N-ethyl-N-{5-[6-(4-methylpyridin-2-ylamino)pyridin-2-yl]thiazol-2-yl}amino)piperidin-1-yl]ethanone] | – | – | IC50 [1, 5]: < 100 nM; IC50 ([2]; Tables 1-x, compounds A): 100 to 1000 nM
Cc1ccnc(Nc2cccc(-c3cnc(CN)s3)n2)c1 [Compound A-142] | 100 to 1000 nM | > 1000 nM | –
Cc1ccnc(Nc2cccc(-c3cnc(CCC4CCN(C(=O)c5ccncc5)CC4)s3)n2)c1 [Compound A-301] | 100 to 1000 nM | 100 to 1000 nM | –
Cc1ccnc(Nc2cccc(-c3cnc(N4CCN(C)C(=O)C4)s3)n2)c1 [Compound A-1, 1-methyl-4-{5-[6-(4-methylpyridin-2-ylamino)pyridin-2-yl]thiazol-2-yl}piperazin-2-one] | 100 to 1000 nM | 100 to 1000 nM | –
Cc1ccnc(Nc2cccc(-c3cnc(N4CCCC(C(N)=O)C4)s3)n2)c1 (stereo not drawn) [Compound A-476, 1-{5-[6-(4-methylpyridin-2-ylamino)pyridin-2-yl]thiazol-2-yl}piperidine-3-carboxamide] | – | – | IC50 [1, 5]: < 100 nM; IC50 ([2]; Tables 1-x, compounds A): < 100 nM

More lines, main results first:

IC50 [1, 3] | IC50 [2, 4] | SMILES | further results
< 100 nM | 100 to 1000 nM | Cc1ccnc(Nc2cccc(-c3cnc(C4CCN(C(=O)CO)CC4)s3)n2)c1 [Compound A-187, 2-hydroxy-1-(4-{5-[6-(4-methylpyridin-2-ylamino)pyridin-2-yl]thiazol-2-yl}piperidin-1-yl)ethanone] | –
100 to 1000 nM | > 1000 nM | Cc1ccnc(Nc2cccc(-c3cnc(CN4CCC(C(=O)O)CC4)s3)n2)c1 [Compound A-168] | –
100 to 1000 nM | 100 to 1000 nM | CC(=O)N1CCC(CCc2ncc(-c3cccc(Nc4cc(C)ccn4)n3)s2)CC1 [Compound A-259] | –
100 to 1000 nM | > 1000 nM | Cc1ccnc(Nc2cccc(-c3cnc(CN4CCN(C)CC4)s3)n2)c1 [Compound A-209] | –
100 to 1000 nM | > 1000 nM | Cc1ccnc(Nc2cccc(-c3cnc([C@H]4CC[C@H](CN5CCCC(O)C5)CC4)s3)n2)c1 (stereo partly drawn) [Compound A-315] | –
100 to 1000 nM | > 1000 nM | Cc1ccnc(Nc2cccc(-c3cnc(C(=O)NC(CO)CO)s3)n2)c1 [Compound A-72] | –
100 to 1000 nM | 100 to 1000 nM | O=C(O)Cc1ccnc(Nc2cccc(-c3cnc([C@@H]4CCC(=O)N4)s3)n2)c1 [Compound A-340] | –
100 to 1000 nM | > 1000 nM | COC(=O)CCCCc1ncc(-c2cccc(Nc3cc(C)ccn3)n2)s1 [Compound A-68] | –
100 to 1000 nM | 100 to 1000 nM | Cc1ccnc(Nc2cccc(-c3cnc(CNC(=O)CCO)s3)n2)c1 [Compound A-186] | –
100 to 1000 nM | > 1000 nM | COC(=O)CCN(Cc1ncc(-c2cccc(Nc3cc(C)ccn3)n2)s1)C(C)=O [Compound A-164] | –
